The subject of series [1] is Staphylococcus aureus (Isolate ID ATCC 29213). Briefly: Antibacterial activity, MIC, S. aureus. The format is cell-based. The settings on record: broth microdilution or agar dilution; for MIC: Staphylococcus aureus, ATCC29213, Gram positive strain; for Antibacterial Activity (MIC) S. aureus (ATCC 29213): Gram positive strain. On the procedure: (§1) Bacterial Assay: Determination of Antibacterial Activity
(§2) Compounds of the invention were tested for antimicrobial activity by susceptibility testing in liquid or on solid media. MICs for compounds against each strain were determined by the broth microdilution or agar dilution method according to the guidelines of the Clinical Laboratories and Standards Institute, formerly the National Committee for Clinical Laboratory Standards (Clinical Laboratories and Standards Institute. Methods for Dilution Antimicrobial Susceptibility Tests for Bacteria That Grow Aerobically; Approved Standard—Seventh Edition. Document M7-A7. CLSI, Wayne, Pa., 2006; Clinical Laboratories and Standards Institute. The gram positive bacterial strains tested include S. aureus (Staphylococcus aureus (Isolate ID ATCC 29213)), E. faecalis (Enterococcus faecalis (Isolate ID ATCC 29212)) and S. pyogenes (Streptococcus pyogenes (Isolate ID ATCC 51339)). The gram negative bacterial strains tested include H. influenzae (Haemophilus influenzae (Isolate ID ATCC 49247))

Another series can be described thus: physchem. The note with it: kinetic from dmso stock. On the procedure: Turbimetric Assay: Determination of Solubility
The solubility of the compounds was measured using a turbidimetric method. A series of doubling dilutions of compounds were prepared in neat dimethyl sulfoxide (DMSO). 5 μl samples were diluted twenty-fold into 95 μl volumes of 100 mM citrate buffer (pH 4), phosphate buffered saline (PBS, pH 7.4) or carbonate-bicarbonate buffer (pH 9) in microtitre assay plates and allowed to reach equilibrium at room temperature for 24 hours. The absorbance within each well of the plate was read spectrophotometrically at a wavelength of 620 nm. A precipitate forms when the maximum aqueous solubility level is reached. The value quoted is the highest concentration where the compound was in solution i.e. where no measurable precipitate was present. […] ND=not determined

The subject of series [2] is Streptococcus pyogenes (Isolate ID ATCC 51339). The experiment in a line: Antibacterial activity, MIC, S. pyogenes. The format is cell-based. The note with it: broth microdilution or agar dilution; for MIC: Streptococcus pyogenes, ATCC51339, Gram positive strain; for Antibacterial Activity (MIC) S. pyogenes (ATCC 51339): Gram positive strain. The method, then:
as §1, §2

Series [3] relates to Haemophilus influenzae (Isolate ID ATCC 49247). The experiment in a line: Antibacterial activity, MIC, H. influenzae. The format is cell-based. The note with it: Gram negative strain, broth microdilution or agar dilution; for MIC: Haemophilus influenzae, ATCC49247. The method, then:
as §1, §2

The mark [4] stands for this setting: pH 7.4, aqueous buffer, Max Solubility.
Where [5] appears, read: pH 7.4, aqueous buffer, Solubility (pH 7.4).
Setting [6] is: pH 7.4, aqueous buffer, Solubility Range.
[7] abbreviates: pH 7.4, aqueous buffer, Solubility Range (maximum solubility).

Each structure is given as a SMILES string. In brackets after ≈: the same amount, converted by molar mass.

On to `CCNC(=O)Nc1nc2cc(-c3cnc(N4CCC(C)(C(=O)O)CC4)nc3)cc(-c3ncc(C)cc3F)c2s1` [Compound 93], for which the MIC in series [1] is at most 0.25 µg/mL; in series [2], at most 0.25 µg/mL; in series [3], 1 to 16 µg/mL (≈ 1.82 to 29.1 µM). In addition, the solubility at 24 h was at least 800 µg/mL in the series “physchem” (setting [4]), at least 800 µg/mL in the series “physchem” (setting [5]), over 800 µg/mL in “physchem” (setting [6]) and over 800 µg/mL in “physchem” (setting [7]).

As to `CCNC(=O)Nc1nc2cc(-c3cnc(N4CCC(C)(C(=O)O)CC4)nc3)cc(/C(C)=N/OCC(F)(F)F)c2s1` [Compound 94], the results for the MIC in series [1], in series [2] and in series [3] were 1 to 16 µg/mL (≈ 1.73 to 27.6 µM), 1 to 16 µg/mL (≈ 1.73 to 27.6 µM) and over 16 µg/mL, respectively. The solubility at 24 h is at least 800 µg/mL in “physchem” (setting [4]), at least 800 µg/mL in the series “physchem” (setting [5]), over 800 µg/mL in “physchem” (setting [6]) and over 800 µg/mL in “physchem” (setting [7]).

On to `CCNC(=O)Nc1nc2cc(-c3cnc(N4CCC(C)(C(=O)O)CC4)nc3)cc(/C(C)=N/O)c2s1` [Compound 95], for which the MIC in series [1] is 1 to 16 µg/mL (≈ 2.01 to 32.2 µM); in series [2], 0.25 to 1 µg/mL (≈ 0.502 to 2.01 µM); in series [3], over 16 µg/mL. Also, the solubility at 24 h was at least 800 µg/mL in “physchem” (setting [4]), at least 800 µg/mL in the series “physchem” (setting [5]), over 800 µg/mL in “physchem” (setting [6]) and over 800 µg/mL in “physchem” (setting [7]).

For `CCNC(=O)Nc1nc2cc(-c3cnc(N4CCC(C)(C(=O)O)CC4)nc3)cc(/C(C)=N/OCC)c2s1` [Compound 96], the MIC in series [1] was at most 0.25 µg/mL; in series [2], 0.25 to 1 µg/mL (≈ 0.476 to 1.9 µM); in series [3], 1 to 16 µg/mL (≈ 1.9 to 30.4 µM). Besides, the solubility at 24 h in “physchem” (setting [4]) is at least 800 µg/mL; in “physchem” (setting [5]), at least 800 µg/mL; in the series “physchem” (setting [6]), over 800 µg/mL; in “physchem” (setting [7]), over 800 µg/mL.

On to `CCNC(=O)Nc1nc2cc(-c3cnc(N4CCC(C)(C(=O)O)CC4)nc3)cc(C(=O)NCC)c2s1` [Compound 97, 1-[5-[7-(Ethylcarbamoyl)-2-(ethylcarbamoylamino)-1,3-benzothiazol-5-yl]pyrimidin-2-yl]-4-methyl-piperidine-4-carboxylic acid], for which the MIC in series [1] is over 16 µg/mL; in series [2], 1 to 16 µg/mL (≈ 1.95 to 31.3 µM); in series [3], over 16 µg/mL. Further, the solubility at 24 h in the series “physchem” (setting [4]) is at least 800 µg/mL; in the series “physchem” (setting [5]), at least 800 µg/mL; in the series “physchem” (setting [6]) it was over 800 µg/mL; in the series “physchem” (setting [7]), over 800 µg/mL.

In the case of `CCNC(=O)Nc1nc2cc(-c3cnc(N4CCC(CC)(C(=O)O)CC4)nc3)cc(/C(C)=N/OC)c2s1` [Compound 116, 4-ethyl-1-[5-[2-(ethylcarbamoylamino)-7-[(E)-N-methoxy-C-methyl-carbonimidoyl]-1,3-benzothiazol-5-yl]pyrimidin-2-yl]piperidine-4-carboxylic acid], the MIC is at most 0.25 µg/mL in series [1], at most 0.25 µg/mL in series [2] and 1 to 16 µg/mL (≈ 1.9 to 30.4 µM) in series [3]. Besides, the solubility at 24 h in the series “physchem” (setting [4]) was at least 800 µg/mL; in “physchem” (setting [5]), at least 800 µg/mL; in the series “physchem” (setting [6]), over 800 µg/mL; in the series “physchem” (setting [7]) it was over 800 µg/mL.

In the case of `CCNC(=O)Nc1nc2cc(-c3cnc(N4CCC(C)(C(=O)O)CC4)nc3)cc(CN3CCOCC3)c2s1` [Compound 158, 1-[5-[2-(ethylcarbamoylamino)-7-(morpholinomethyl)-1,3-benzothiazol-5-yl]pyrimidin-2-yl]-4-methyl-piperidine-4-carboxylic acid], the MIC is 1 to 16 µg/mL (≈ 1.85 to 29.6 µM) in series [1], 1 to 16 µg/mL (≈ 1.85 to 29.6 µM) in series [2] and over 16 µg/mL in series [3]. Further, the solubility at 24 h in “physchem” (setting [4]) was at least 800 µg/mL; in “physchem” (setting [5]) it was at least 800 µg/mL; in “physchem” (setting [6]), over 800 µg/mL; in the series “physchem” (setting [7]), over 800 µg/mL.

As for `CCNC(=O)Nc1nc2cc(-c3cnc(N4CCC(C)(C(=O)O)CC4)nc3)cc(C(=O)N3CCOCC3)c2s1` [Compound 159, 1-[5-[2-(ethylcarbamoylamino)-7-(morpholine-4-carbonyl)-1,3-benzothiazol-5-yl]pyrimidin-2-yl]-4-methyl-piperidine-4-carboxylic acid], the MIC in series [1], in series [2] and in series [3] was over 16 µg/mL in each case. Also, the solubility at 24 h in the series “physchem” (setting [4]) was 400 µg/mL (≈ 722 µM); in the series “physchem” (setting [5]), 400 µg/mL (≈ 722 µM); in “physchem” (setting [6]), 400 to 800 µg/mL (≈ 722 to 1440 µM); in the series “physchem” (setting [7]), 400 to 800 µg/mL (≈ 722 to 1440 µM).

On to `CCNC(=O)Nc1nc2cc(-c3cnc(N4CCC(C)(C(=O)O)CC4)nc3)nc(-c3ccccn3)c2s1` [Compound 162, 1-[5-[2-(ethylcarbamoylamino)-4-(2-pyridyl)thiazolo[5,4-c]pyridin-6-yl]pyrimidin-2-yl]-4-methyl-piperidine-4-carboxylic acid], for which the figures for the MIC in series [1], in series [2] and in series [3] were at most 0.25 µg/mL, at most 0.25 µg/mL and 1 to 16 µg/mL (≈ 1.93 to 30.9 µM), respectively. Moreover, the solubility at 24 h in the series “physchem” (setting [5]) is 200 µg/mL (≈ 386 µM); in “physchem” (setting [6]) it was 12.5 to 400 µg/mL (≈ 24.1 to 771 µM); in the series “physchem” (pH 9, aqueous buffer, Max Solubility), 400 µg/mL (≈ 771 µM); in “physchem” (pH 9, aqueous buffer, Solubility Range (maximum solubility)) it was 400 to 800 µg/mL (≈ 771 to 1540 µM).

In the case of `CCNC(=O)Nc1nc2cc(-c3cnc(N4CCCC(C)(C(=O)O)CC4)nc3)cc(-c3ccccn3)c2s1` (stereo not drawn) [Compound 166], the MIC is at most 0.25 µg/mL in series [1], at most 0.25 µg/mL in series [2] and 1 to 16 µg/mL (≈ 1.88 to 30.1 µM) in series [3]. For the same compound, the solubility at 24 h was at least 800 µg/mL in “physchem” (setting [4]), at least 800 µg/mL in the series “physchem” (setting [5]), over 800 µg/mL in the series “physchem” (setting [6]) and over 800 µg/mL in the series “physchem” (setting [7]).

For the compound `CCNC(=O)Nc1nc2cc(-c3cnc(N4CCC(CC)(C(=O)O)CC4)nc3)cc(/C=N/OC)c2s1` [Compound 189, 4-Ethyl-1-[5-[2-(ethylcarbamoylamino)-7-[(E)-methoximinomethl]-1,3-benzothiazol-5-yl]pyrimidin-2-yl]piperidine-4-carboxylic acid], in series [1], the “Antibacterial Activity (MIC) S. aureus (ATCC 29213)” value is listed as “A (“A” activity ≦0.25 μg/mL)”. The “Antibacterial Activity (MIC) S. pyogenes (ATCC 51339)” value in series [2] is “A (“A” activity ≦0.25 μg/mL)”. Further, in series [3], the “Antibacterial Activity (MIC) H. influenzae (ATCC 49247)” value is “C (“C” activity >1.0 μg/mL-16 μg/mL)”.

Turning to `CCNC(=O)Nc1cn2c(-n3cccn3)cc(-c3cnc(N4CCC(CC)(C(=O)O)CC4)nc3)cc2n1` [Compound 230, 4-ethyl-1-[5-[2-(ethylcarbamoylamino)-5-pyrazol-1-yl-imidazo[1,2-a]pyridin-7-yl]pyrimidin-2-yl]piperidine-4-carboxylic acid], the MIC in series [1] is 1 to 16 µg/mL (≈ 1.99 to 31.8 µM); in series [2], 1 to 16 µg/mL (≈ 1.99 to 31.8 µM); in series [3], over 16 µg/mL.

In the case of `CCNC(=O)Nc1cn2c(-n3cccn3)cc(-c3cnc(N4CCC(C)(C(=O)O)CC4)nc3)cc2n1` [Compound 231, 1-[5-[2-(ethylcarbamoylamino)-5-pyrazol-1-yl-imidazo[1,2-a]pyridin-7-yl]pyrimidin-2-yl]-4-methyl-piperidine-4-carboxylic acid], the MIC in series [1] was over 16 µg/mL; in series [2], 1 to 16 µg/mL (≈ 2.04 to 32.7 µM).

`CCNC(=O)Nc1nc2cc(-c3nc(N4CCC(C)(C(=O)O)CC4)ns3)cc(-c3ccccn3)c2s1` [Compound 233, 1-(5-{2-[(ethylcarbamoyl)amino]-7-(pyridin-2-yl)-1,3-benzothiazol-5-yl}-1,2,4-thiadiazol-3-yl)-4-methylpiperidine-4-carboxylic acid]: in series [1], the “Antibacterial Activity (MIC) S. aureus (ATCC 29213)” value is given as “B (“B” activity >0.25 μg/mL-1.0 μg/mL)”. For the same compound, the “Antibacterial Activity (MIC) S. pyogenes (ATCC 51339)” value in series [2] is given as “B (“B” activity >0.25 μg/mL-1.0 μg/mL)”. The “Antibacterial Activity (MIC) H. influenzae (ATCC 49247)” value in series [3] was “D (“D” activity >16 μg/mL)”.
